Test results from patent US20160041192A1 (Ameritox, Ltd., priority 2014, published 2016).

How the values were obtained:
[1] = human urine; major defined by ≧10% total drug exposure (Baselt 2014); cited from earlier work
[2] = human, in vivo
Protocol: (§1) Samples were subsequently vortexed and centrifuged prior to the injection of 5 μL on the QQQ. Each patient sample was analyzed twice to ensure accuracy.
(§2) Samples were subsequently vortexed and centrifuged prior to the injection of 5 μL on the QQQ.
as §2, §1, §2, §2, §2, §2, §2

[3] = post oral dosing; cited from earlier work
[4] = cited from earlier work
[5] = Urine test of patients prescribed Seroquel after enzymatic hydrolysis with recombinant β-glucuronidase, QQQ; format: in vivo, human; settings: patient prescribed Seroquel, various doses
Protocol: 100 μL of each patient specimen was diluted with 400 μL of a “master mix” that included 1.6 μg/mL of quetiapine-D8 (internal standard), 0.06 M phosphate buffer, and at least 1450 U of a recombinant β-glucuronidase enzyme.

[6] = humans; cited from earlier work

O=C(O)COCCN1CCN(C2=Nc3ccccc3Sc3ccccc32)CC1 [Quetiapine Carboxylic Acid]
abundance in urine [1]: major | Urine concentration, Pre-Hydrolysis Results, Subject HR [2]: >5000 ng/mL | Urine concentration, Pre-Hydrolysis Results, Subject T [2]: 6 ng/mL | Urine concentration, Pre-Hydrolysis Results, Subject W [2]: 5 ng/mL | Urine concentration, Pre-Hydrolysis Results, Subject eight [2]: >5000 ng/mL | Urine concentration, Pre-Hydrolysis Results, Subject eighteen [2]: >5000 ng/mL | Urine concentration, Pre-Hydrolysis Results, Subject eleven [2]: >5000 ng/mL | Urine concentration, Pre-Hydrolysis Results, Subject fifteen [2]: >5000 ng/mL | Urine concentration, Pre-Hydrolysis Results, Subject five [2]: >5000 ng/mL | Urine concentration, Pre-Hydrolysis Results, Subject four [2]: >5000 ng/mL | Urine concentration, Pre-Hydrolysis Results, Subject fourteen [2]: >5000 ng/mL | Urine concentration, Pre-Hydrolysis Results, Subject nine [2]: >5000 ng/mL | Urine concentration, Pre-Hydrolysis Results, Subject nineteen [2]: 5 ng/mL | Urine concentration, Pre-Hydrolysis Results, Subject one [2]: >5000 ng/mL | Urine concentration, Pre-Hydrolysis Results, Subject seven [2]: >5000 ng/mL | Urine concentration, Pre-Hydrolysis Results, Subject seventeen [2]: >5000 ng/mL | Urine concentration, Pre-Hydrolysis Results, Subject sixteen [2]: >5000 ng/mL | Urine concentration, Pre-Hydrolysis Results, Subject thirteen [2]: >5000 ng/mL | Urine concentration, Pre-Hydrolysis Results, Subject three [2]: >5000 ng/mL | Urine concentration, Pre-Hydrolysis Results, Subject twelve [2]: >5000 ng/mL | Urine concentration, Pre-Hydrolysis Results, Subject twenty [2]: >5000 ng/mL | Urine concentration, Pre-Hydrolysis Results, Subject twenty-five [2]: >5000 ng/mL | Urine concentration, Pre-Hydrolysis Results, Subject twenty-four [2]: >5000 ng/mL | Urine concentration, Pre-Hydrolysis Results, Subject twenty-three [2]: 10 ng/mL | Urine concentration, Pre-Hydrolysis Results, Subject twenty-two [2]: >5000 ng/mL

OCCOCCN1CCN(C2=Nc3ccccc3Sc3ccccc32)CC1 [Quetiapine, 2-(2-(4-dibenzo[b,f][1,4]thiazepine-11-yl-1-piperazinyl)ethoxy) ethanol, reference compound]
share of the total radioactivity in plasma [3]: 24% | Urine concentration, Pre-Hydrolysis Results, Average [2]: 838 ng/mL | Urine concentration, Pre-Hydrolysis Results, Maximum Value [2]: 4999 ng/mL | Urine concentration, Pre-Hydrolysis Results, Median Value [2]: 287 ng/mL | Urine concentration, Pre-Hydrolysis Results, Minimum Value [2]: 17 ng/mL | Urine concentration, Pre-Hydrolysis Results, Subject HR [2]: 4574 ng/mL | Urine concentration, Pre-Hydrolysis Results, Subject eight [2]: 120 ng/mL | Urine concentration, Pre-Hydrolysis Results, Subject eighteen [2]: 755 ng/mL | Urine concentration, Pre-Hydrolysis Results, Subject eleven [2]: 17 ng/mL | Urine concentration, Pre-Hydrolysis Results, Subject fifteen [2]: 1118 ng/mL | Urine concentration, Pre-Hydrolysis Results, Subject five [2]: 77 ng/mL | Urine concentration, Pre-Hydrolysis Results, Subject four [2]: 187 ng/mL | Urine concentration, Pre-Hydrolysis Results, Subject fourteen [2]: 917 ng/mL | Urine concentration, Pre-Hydrolysis Results, Subject one [2]: 269 ng/mL | Urine concentration, Pre-Hydrolysis Results, Subject seven [2]: 873 ng/mL | Urine concentration, Pre-Hydrolysis Results, Subject seventeen [2]: 315 ng/mL | Urine concentration, Pre-Hydrolysis Results, Subject six [2]: 77 ng/mL | Urine concentration, Pre-Hydrolysis Results, Subject sixteen [2]: 97 ng/mL | Urine concentration, Pre-Hydrolysis Results, Subject thirteen [2]: 1137 ng/mL | Urine concentration, Pre-Hydrolysis Results, Subject three [2]: 304 ng/mL | Urine concentration, Pre-Hydrolysis Results, Subject twelve [2]: 361 ng/mL | Urine concentration, Pre-Hydrolysis Results, Subject twenty [2]: 208 ng/mL | Urine concentration, Pre-Hydrolysis Results, Subject twenty-one [2]: 137 ng/mL | Urine concentration, Pre-Hydrolysis Results, Subject twenty-two [2]: 222 ng/mL | Urine concentration, Pre-Hydrolysis Results, Subject two [2]: 4999 ng/mL | time to steady state serum concentrations ([4]; days of dosing): 2 days | increase of bioavailability ([4]; dosing with a light meal (~300 calories)): ~20% | mean elimination half-life ([4]; in vivo): 6 h | absorption ([4]; oral administration): rapidly absorbed | Urine concentration, Post-Hydrolysis Results, Subject T [5]: 86 ng/mL | Urine concentration, Post-Hydrolysis Results, Subject W [5]: ND (Indicates that the listed parent or metabolite compound was either not detected or detected below the established cut-off of 5 ng/mL indicating a negative result for that particular subject.) | Urine concentration, Post-Hydrolysis Results, Subject eleven [5]: 4059 ng/mL | Urine concentration, Post-Hydrolysis Results, Subject fifteen [5]: >5000 ng/mL | Urine concentration, Post-Hydrolysis Results, Subject four [5]: 2928 ng/mL | Urine concentration, Post-Hydrolysis Results, Subject nine [5]: 1494 ng/mL | Urine concentration, Post-Hydrolysis Results, Subject nineteen [5]: 29 ng/mL | Urine concentration, Post-Hydrolysis Results, Subject seventeen [5]: >5000 ng/mL | Urine concentration, Post-Hydrolysis Results, Subject sixteen [5]: 3019 ng/mL | Urine concentration, Post-Hydrolysis Results, Subject twenty [5]: >5000 ng/mL | Urine concentration, Post-Hydrolysis Results, Subject twenty-five [5]: 2579 ng/mL | Urine concentration, Post-Hydrolysis Results, Subject twenty-three [5]: 14 ng/mL | excreted in the feces [6]: 20% | recovered in the urine [6]: 73%

[O-][S+]1c2ccccc2N=C(N2CCN(CCOCCO)CC2)c2ccccc21 (centres unmarked) [Quetiapine Sulfoxide]
abundance in urine [1]: major | Urine concentration, Pre-Hydrolysis Results, Average [2]: 2318 ng/mL | Urine concentration, Pre-Hydrolysis Results, Maximum Value [2]: >5000 ng/mL | Urine concentration, Pre-Hydrolysis Results, Median Value [2]: 2143 ng/mL | Urine concentration, Pre-Hydrolysis Results, Subject HR [2]: >5000 ng/mL | Urine concentration, Pre-Hydrolysis Results, Subject eight [2]: >5000 ng/mL | Urine concentration, Pre-Hydrolysis Results, Subject eighteen [2]: >5000 ng/mL | Urine concentration, Pre-Hydrolysis Results, Subject eleven [2]: 2143 ng/mL | Urine concentration, Pre-Hydrolysis Results, Subject fifteen [2]: 740 ng/mL | Urine concentration, Pre-Hydrolysis Results, Subject five [2]: 4484 ng/mL | Urine concentration, Pre-Hydrolysis Results, Subject four [2]: >5000 ng/mL | Urine concentration, Pre-Hydrolysis Results, Subject fourteen [2]: >5000 ng/mL | Urine concentration, Pre-Hydrolysis Results, Subject nine [2]: >5000 ng/mL | Urine concentration, Pre-Hydrolysis Results, Subject one [2]: >5000 ng/mL | Urine concentration, Pre-Hydrolysis Results, Subject seven [2]: >5000 ng/mL | Urine concentration, Pre-Hydrolysis Results, Subject seventeen [2]: >5000 ng/mL | Urine concentration, Pre-Hydrolysis Results, Subject six [2]: 1252 ng/mL | Urine concentration, Pre-Hydrolysis Results, Subject sixteen [2]: 2971 ng/mL | Urine concentration, Pre-Hydrolysis Results, Subject thirteen [2]: >5000 ng/mL | Urine concentration, Pre-Hydrolysis Results, Subject three [2]: >5000 ng/mL | Urine concentration, Pre-Hydrolysis Results, Subject twelve [2]: >5000 ng/mL | Urine concentration, Pre-Hydrolysis Results, Subject twenty [2]: >5000 ng/mL | Urine concentration, Pre-Hydrolysis Results, Subject twenty-five [2]: >5000 ng/mL | Urine concentration, Pre-Hydrolysis Results, Subject twenty-four [2]: >5000 ng/mL | Urine concentration, Pre-Hydrolysis Results, Subject twenty-one [2]: >5000 ng/mL | Urine concentration, Pre-Hydrolysis Results, Subject twenty-two [2]: >5000 ng/mL | Urine concentration, Pre-Hydrolysis Results, Subject two [2]: >5000 ng/mL | Urine concentration, Post-Hydrolysis Results, Subject W [5]: ND (Indicates that the listed parent or metabolite compound was either not detected or detected below the established cut-off of 5 ng/mL indicating a negative result for that particular subject.)

c1ccc2c(c1)N=C(N1CCNCC1)c1ccccc1S2 [N-Desalkyl Quetiapine, N-Desalkyl Quetiapine (Norquetiapine)]
share of the total radioactivity in plasma [3]: 10% | abundance in urine [1]: only small quantities
